Data: US7847064B2, “Methods and compositions for regulating gene expression in plant cells” (Donald Danforth Plant Science Center, priority 2004, dated 2010)

System: non-transgenic BY-2 protoplasts
Experiment: GUS activity of Box II/CaMV 35S chimeric promoters in non-transgenic BY-2 protoplasts
Type: cell-based, tobacco
Conditions: for increase in expression level above the construct without Box II: versus p-48CaMV and p-90CaMV respectively, normalized against GFP; for stimulation of gene expression versus the construct without Box II: Box II at 7 nucleotides from the TATA box plus multiples of 0.5 turns of DNA helix
From the text: Specifically, the Box II element was fused to the 5′ end of the chimeric promoters with a space of 7 nucleotides from the TATA box plus 1, 1.5, 3.0, 3.5, 5.0 and 5.5 “turns of DNA helix” (one turn=10.4 base pairs). The chimeric promoters were then inserted into a cassette with the uidA coding sequencing and Nos terminator.
Construction of Plasmids Comprising the Box II Element and Different Lengths of the CaMV 35S Promoter—To construct Box II and CaMV 35S chimeric promoters, the Box II element was introduced into CaMV 35S promoter sequences of different lengths through PCR reactions using Pfu DNA polymerase (Stratagen Systems, Kirkland, Wis.). Forward primers for the PCR reactions were designed to have a HindIII restriction site, followed by the Box II sequence, which was followed by part of the 5′ CaMV promoter at desired positions (see FIG. 12 and Table 2 for specific primer sequences). The GUS 3′ primer (SEQ ID NO:36) was used as reverse primer for all reactions.
The p35S:GUS plasmid was used as template in the foregoing reactions. In the p35S:GUS plasmid, a NcoI restriction site was located between the CaMV 35S promoter and the GUS coding sequence. Thus, a NcoI site was present in all PCR products. The PCR products were restricted with HindIII/NcoI and cloned into a pE:GUS vector to replace the E promoter through the same set of restriction sites. The constructed plasmids containing the chimeric promoters labeled 1 through 6 in Table 2 were named p-1.0hBoxII−48CaMV:GUS, p-1.5hBoxII−53CaMV:GUS, p-3.0hBoxII−69CaMV:GUS, p-3.5hBoxII−74CaMV, p-5.0hBoxII−90CaMV:GUS, and p-5.5hBoxII−95CaMV:GUS, respectively. The controls for this set of plasmids were generated using primer sets 1.5h-53CaMV-c (SEQ ID NO:43)/GUS3′; −3.5h-74CaMV-c (SEQ ID NO:44)/GUS3′ and −5.5h-95CaMV-c (SEQ ID NO:45)/GUS3′, which products were cloned into pE:GUS with HindIII/NcoI to replace the E promoter. The derived plasmids/constructs were named p-53CaMV:GUS, p-74CaMV:GUS and p-95CaMV:GUS, respectively.
The foregoing constructs were then transfected into non-transgenic BY-2 protoplasts, and the resulting GUS activity determined.

Substance | increase in expression level above the construct without Box II [fold] | stimulation of gene expression versus the construct without Box II
p1.0hBoxII−48CaMV: Box II fused to CaMV 35S promoter, 7 nucleotides from TATA box plus 1 turn of DNA helix (DNA TGATCAAAGCTTCCAGTGTGCCCCTGGTCGCAAGACCCTTCCTC; listed as DNA, chemistry not given here) | 6.9 | 
p5.0hBoxII−90CaMV: Box II fused to CaMV 35S promoter, 7 nucleotides from TATA box plus 5.0 turns (DNA TGATCAAAGCTTCCAGTGTGCCCCTGGATCTCCACTGACGTAAG; listed as DNA, chemistry not given here) | 4.7 | 
p-1.5hBox II−53CaMV: Box II fused to CaMV 35S promoter, 7 nucleotides from TATA box plus 1.5 turns (DNA TGATCAAAGCTTCCAGTGTGCCCCTGGATCCTTCGCAAGACCCT; listed as DNA, chemistry not given here) |  | much less or no stimulation of gene expression
p-3.5hBox II−74CaMV: Box II fused to CaMV 35S promoter, 7 nucleotides from TATA box plus 3.5 turns (DNA TGATCAAAGCTTCCAGTGTGCCCCTGGGGGATGACGCACAATCC; listed as DNA, chemistry not given here) |  | much less or no stimulation of gene expression
p-5.5hBox II−95CaMV: Box II fused to CaMV 35S promoter, 7 nucleotides from TATA box plus 5.5 turns (DNA TGATCAAAGCTTCCAGTGTGCCCCTGGGTGATATCTCCACTGAC; listed as DNA, chemistry not given here) |  | much less or no stimulation of gene expression
